These results are taken from PMC7889660, “Complex precursor structures of cytolytic cupiennins identified in spider venom gland transcriptomes” (Scientific Reports, 2021).

Read-outs that look alike come from different tables or passages of the source. Ends that are not written are not given here.

Assay [1] deals with Drosophila melanogaster. Nature of the assay: Insecticidal bioassay with Drosophila flies, lethal dose (LD50) 24 h after injection. The class given is in vivo. Particulars: for LD50: synthetic C-terminally amidated peptide in 0.1 M ammonium acetate pH 6.1, 0.05 µl injected intrathoracically into flight muscles of female flies (1- to 7-days old), 50% of flies die after 24 h, minimum five doses, each n = 20, PRISM Vers. 6.07. The protocol: The insecticidal activity of different cupiennins was investigated in a bioassay with Drosophila melanogaster and the lethal dose, where 50% of the insects die of intoxication after 24 h of injection, calculated. […] The shorter LPs such as Cu 3a, d, and Cu 4a, were with 12.4–38.5 pmol/mg fly less toxic.
Cupiennins 3a, 3b, 4a, 6a, 6b, 6d, 7b, 8, and the two-chain CsTx-16a1b1, and CsTx-16c1d1 were synthesized (all C-terminally amidated) by GeneCust, (Dulange, Luxembourg). Bioassays using Drosophila flies were performed as described elsewhere. Briefly, all peptides were dissolved in 0.1 M ammonium acetate, pH 6.1 and 0.05 µl injected intrathoracically into the flight muscles of female flies (1- to 7-days old). For each peptide, in minimum five different peptide doses were injection into the flies (each n = 20) and also a negative control with only buffer was injected (n = 10). Calculations of the lethal dose (LD50) were done with GraphPad PRISM Vers. 6.07 (GraphPad Software, San Diego, CA, USA).

Assay [2] relates to Drosophila melanogaster. Particulars: Drosophila flies, 0.05 µl injected, 50% of flies die after 24 h; cited from earlier work. Here is the method:
Table 3 Insecticidal activities of selected cupiennins, CsTx-16 variants, neurotoxins CsTx-1, CsTx-9, and CsTx-13, and cyto-insectotoxin CIT1a. Different concentrations of peptides were dissolved in 0.1 M ammonium acetate, pH 6.1, and 0.05 µl was injected into Drosophila flies. The lethal dose (LD50, pmol/mg fly), where 50% of the flies die after 24 h, was calculated with PRISM Vers. 6.07. * Data | column: LD50 / (pmol/mg fly)

For “Cu 8: Cu 8 family linear peptide of 20 residues, transcript B, synthesized by GeneCust (IWRMPKKVLKLLAAFRGKEG-NH2)”, in the assay on Drosophila melanogaster [1] (Drosophila, LD50 after 24 h), the “Toxicity ranking among tested cupiennins” value is on record as “lowest toxicity”. Further, the LD50 in the assay on Drosophila melanogaster [1] was 159.7 pmol/mg fly.

On to “Cu 6d: Cu 6 family linear peptide, synthesized by GeneCust (FINTIKLLIEKYREWKNKQSSG-NH2)”, for which, in the assay with Drosophila melanogaster [1], the LD50 stood at 23.2 pmol/mg fly.

Take “Cu 1b: cytolytic linear cationic peptide, Cu 1 family, transcript C1 (GFGSLFKFLAKKVAKTVAKQAAKQGAKYIANKQMEG-NH2)”: the LD50 in the assay on Drosophila melanogaster [2] is listed as 4.7 pmol/mg fly.

In the assay with Drosophila melanogaster [1], “Cu 3a: Cu 3 family linear peptide, synthesized by GeneCust (GFGSLFKFLGKKLLKTVAKQAAKKQMEG-NH2)” came in with an LD50 of 18.7 pmol/mg fly.
